The target of assay [1] is type IV phosphodiesterase. In words: Type IV phosphodiesterase inhibiting activity. The conditions noted are these: U937 type IV phosphodiesterase fraction, 0.28 μM cAMP, pH 7.5, 30° C., 30 minutes; read-out: PDEIV-IC50. Type of assay: biochemical, human. The protocol:
The following assay was used to evaluate the ability of the compound of the present invention to suppress type IV phosphodiesterase, according to Biochemical. Pharmacol. 48 (6), 1219-1223 (1994).
1) Type IV phosphodiesterase activity fractions were prepared as follows. Namely, human histiocytic lymphoma cell line U937 was cultured in an RPMI1640 medium containing 10% fetal calf serum to obtain 10^9 cells of U937. The cells were recovered by centrifugation and suspended in 40 ml of buffer A (20 mM bis-tris, 5 mM 2-mercaptoethanol, 2 mM benzamidine, 2 mM EDTA, 0.1 mM 4-(2-aminoethyl)benzensulfonyl hydrochloride, 50 mM sodium acetate, pH=6.5). The cells were broken by a sonication and centrifuged (4° C., 10,000 G, 10 minutes) to obtain a supernatant. This was filtered by a 0.45 μm filter to obtain the soluble fraction.
2) The soluble fraction obtained was applied into a 1×10 cm DEAE Sepharose column equalibrated with the buffer A. 120 ml of the buffer A containing a linear gradient solution of 0.05 to 1M sodium acetate was used to separate the phosphodiesterase and recover 24 5-ml fractions. Each of the fractions was measured for the cAMP phosphodiesterase activity.
3) The test compound was reacted at a desired concentration in a reaction mixture containing 20 mM tris-HCl (pH 7.5), 1 mM MgCl2, 100 μM EDTA, 330 μg/ml calf serum albumin, 10 μg/ml 5'-nucleotidase, 0.4 μCi ^3 H-cAMP (0.28 μM cAMP) and the type IV phosphodiesterase stored solution at 30° C. for 30 minutes. QAE-Sephadex suspended in 10 mM of hepes-Na (pH -7.0) was added to the reaction mixture which was then allowed to stand for 5 minutes, then the supernatant was obtained, QAE-Sephadex was further added, to the supernatant, and was allowed to stand for 5 minutes, then the supernatant was obtained and measured for radioactivity.

Assay [2] has as its system TNF-α production by LPS stimulated macrophages. Briefly: TNF-α production inhibitory activity by LPS stimulated macrophages. It is filed as cell-based. Particulars: Macrophage, BALB/c mouse peritoneal macrophages, cultured for 8 hours, ELISA. The procedure:
The following assay was used to evaluate the ability of the compound of the present invention to suppress TNF-α production by LPS stimulated macrophages according to Immunopharmacol. 29, 121-127 (1995).
1) 6 to 10 week old female BALB/c mice were used, 2 ml portions of thioglycolate were intraperitoneally administered, and the abdominal cavities were washed by 10 ml of PBS after 4 days, whereby 1 to 2×10^7 peritoneal cells were obtained per mouse. These were suspended in a hemocyte solution (0.75% ammonium chloride, 17 mM tris-hydrochlorate buffer, pH7.2), centrifuged, then resuspended in an RPMI1640 medium including 10% fetal calf serum and seeded in a 96-well cell culture plate at a density of 1×10^5 cells/50 μl/well. Since these cells adhered strongly to the tissue culture plate and were positive in nonspecific esterase staining, they were used for the test as mouse peritoneal macrophages. Mouse peritoneal macrophages were precultured overnight at 37° C. in […] for the experiment.
2) E. Coli (serum type 055:B5) derived LPS was dissolved in PBS in a concentration of 1 mg/ml, then sterilized by filtration. The test compound was dissolved in DMSO to make a 1000-fold concentration solution of the final concentration of use. 10 μl of the above LPS stock solution (final concentration 10 μg/ml) and 1 μl of the tested substance stock solution were added and mixed in 0.5 ml of RPMI1640 medium containing 10% fetal calf serum. This was added to the above cells at 50 μl/well and cultured for 8 hours. The cultured supernatant was recovered from each well and the TNF-α concentration was measured by the ELISA method (Cytoscreen® Immunoassay Kit Mouse TNF-α, BioSourse International).
The comparative example was the compound described in WO-A-97-04775, Example 1, mentioned above.
On the technique in general: An ELISA detects its analyte on a solid surface through an enzyme-linked reagent.

SMILES strings stand for the structures. pIC50: −log10 of the molar value. Where a name gives a salt, the structure may show the parent alone.

In general, pIC50 refers to the negative decadic logarithm of the IC50, by convention in mol/L. `O=C(Nc1c(Cl)cncc1Cl)c1cn(C2CC[S+]([O-])CC2)c2ncccc2c1=O` (stereo not drawn) [Example 102 (Sulfoxide), N-(3,5-dichloropyridin-4-yl)-1-(1-oxotetrahydrothiopyran-4-yl)-1,4-dihydro[1,8]naphthylidin-4-one-3-carboxamide]: the results for the pIC50 in assay [1] and in assay [2] were 8.29 and 7.15, respectively.

With `O=C(Nc1c(Cl)cncc1Cl)c1cn(C2CCS(=O)(=O)CC2)c2ncccc2c1=O` [Example 102 (Sulfon), N-(3,5-dichloropyridin-4-yl)-1-(1,1-dioxotetrahydrothiopyran-4-yl)-1,4-dihydro[1,8]naphthylidin-4-one-3-carboxamide], the pIC50 is 7.80 in assay [1] and 6.70 in assay [2].

For the compound `CN(C)C(=O)[C@@H]1C[C@H](n2cc(C(=O)Nc3c(Cl)cncc3Cl)c(=O)c3cccnc32)CN1C(=O)OCc1ccccc1` [Example 92, N-(3,5-dichloropyridin-4-yl)-1-[(3S,5S)-(1-benzyloxycarbonyl-5-dimethylaminocarbonyl)pyrrolidin-3-yl]-1,4-dihydro[1,8]naphthylidin-4-one-3-carboxamide], the pIC50 in assay [1] is 8.68; in assay [2], 7.15. `O=C(Nc1c(Cl)cncc1Cl)c1cn(C2CCSCC2)c2ncccc2c1=O` [Example 101, N-(3,5-dichloropyridin-4-yl)-1-(4-tetrahydrothiopyranyl)-1,4-dihydro[1,8]naphthylidin-4-one-3-carboxamide]: the pIC50 in assay [1] was 9.40; in assay [2], 8.52.

Turning to `O=C(Nc1c(Cl)cncc1Cl)c1cn(N2CCOCC2)c2ncccc2c1=O` [Example 107, N-(3,5-dichloropyridin-4-yl)-1-(1-morpholino)-1,4-dihydro[1,8]naphthylidin-4-one-3-carboxamide], the pIC50 in assay [1] is 9.40; in assay [2], 8.52. Compound `COc1ccc(C2CNC(=O)C2)cc1OC1CCCC1` (stereo not drawn) [Rolipram, reference compound] gave a pIC50 in assay [2] of 7.00.

`CCNC(=O)N1CC[C@H](n2cc(C(=O)Nc3c(Cl)cncc3Cl)c(=O)c3cccnc32)C1` [Example 18, (S)-N-(3,5-dichloropyridin-4-yl)-1-(1-ethylaminocarbonylpyrrolidin-3-yl)-1,4-dihydro[1,8]naphthylidin-4-one-3-carboxamide]: the pIC50 in assay [1] was 8.33; in assay [2], 9.00. For `O=C(Nc1c(Cl)cncc1Cl)c1cn(C2CCNCC2)c2ncccc2c1=O` [Example 47, N-(3,5-dichloropyridin-4-yl)-1-(4-piperidyl)-1,4-dihydro[1,8]naphthylidin-4-one-3-carboxamide hydrochloride], the figures for the pIC50 in assay [1] and in assay [2] were 7.40 and 6.10, respectively. In the same order, the values of `O=C1CCC(n2cc(C(=O)Nc3ccncc3Cl)c(=O)c3cccnc32)CC1` [Example 123, N-(3-chloropyridin-4-yl)-1-(4-oxocyclohexyl)-1,4-dihydro[1,8]naphthylidin-4-one-3-carboxamide] are 6.41 and 5.92. In the same order, the values of `COC(=O)N1CC(n2cc(C(=O)Nc3ccncc3)c(=O)c3cccnc32)C1` [Example 33, N-(4-pyridyl)-1-(1-methoxycarbonylazetidin-3-yl)-1,4-dihydro[1,8]naphthylidin-4-one-3-carboxamide] are 5.70 and 5.30. In the same order, the values of `COC(=O)N1CC(n2cc(C(=O)Nc3cccnc3)c(=O)c3cccnc32)C1` [Example 32, N-(3-pyridyl)-1-(1-methoxycarbonylazetidin-3-yl)-1,4-dihydro[1,8]naphthylidin-4-one-3-carboxamide] are 5.66 and 5.40. `O=C(Nc1c(Cl)cncc1Cl)c1cn([C@H]2CCOC2)c2ncccc2c1=O` [Example 44, N-(3,5-dichloropyridine-4-yl)-1-[(S)-tetrahydro-3-furanyl]-1,4-dihydro[1,8]naphthylidin-4-one-3-carboxamide]: the values for the pIC50 in assay [1] and in assay [2] were 8.57 and 8.00, respectively. On to `CN(C)C(=O)[C@@H]1C[C@H](n2cc(C(=O)Nc3c(Cl)cncc3Cl)c(=O)c3cccnc32)CN1` [Example 93, N-(3,5-dichloropyridin-4-yl)-1-[(3S,5S)-(5-dimethylaminocarbonyl)pyrrolidin-3-yl]-1,4-dihydro[1,8]naphthylidin-4-one-3-carboxamide], for which the pIC50 was 7.16 in assay [1] and 5.70 in assay [2].

For `O=C(Nc1ccncc1)c1cn([C@H]2CCOC2)c2ncccc2c1=O` [Example 43, N-(4-pyridyl)-1-[(S)-tetrahydro-3-furanyl]-1,4-dihydro[1,8]naphthylidin-4-one-3-carboxamide], the values for the pIC50 in assay [1] and in assay [2] were 6.72 and 5.60, respectively. For the compound `CCNC(=O)N1CCC(n2cc(C(=O)Nc3c(Cl)cncc3Cl)c(=O)c3cccnc32)CC1` [Example 27, N-(3,5-dichloropyridin-4-yl)-1-(1-ethylaminocarbonylpiperidin-4-yl)-1,4-dihydro[1,8]naphthylidin-4-one-3-carboxamide], the pIC50 in assay [1] was 8.89; in assay [2], 8.00. With `CN1CCC(n2cc(C(=O)Nc3c(Cl)cncc3Cl)c(=O)c3cccnc32)CC1` [Example 51, N-(3,5-dichloropyridin-4-yl)-1-(1-methylpiperidin-4-yl)-1,4-dihydro[1,8]naphthylidin-4-one-3-carboxamide], the pIC50 in assay [1] was 7.37; in assay [2], 7.30. The matching figures for `COC(=O)N1CC[C@@H](n2cc(C(=O)Nc3c(Cl)cccc3Cl)c(=O)c3cccnc32)C1` [Example 16, (R)-N-(2,6-dichlorophenyl)-1-(1-methoxycarbonylpyrrolidin-3-yl)-1,4-dihydro[1,8]naphthyridin-4-one-3-carboxamide]: 7.27 and 6.52. Consider `CN1CCN(Cc2ccc(C(=O)O[C@H]3CC[C@H](n4cc(C(=O)Nc5c(Cl)cncc5Cl)c(=O)c5cccnc54)CC3)cc2)CC1` [Example 133, trans-4-[3-{[(3,5-dichloro-4-pyridinyl)amino]carbonyl}-4-oxo[1,8]naphthylidin-1(4H)-yl]cyclohexyl 4-[(4-methylpiperazino)methyl]benzoate dihydrochloride], for which the pIC50 in assay [1] is 8.14. Still for that read-out and setting: under `Cc1noc(NC(=O)c2cn([C@H]3CC[C@H](O)CC3)c3ncccc3c2=O)c1C` [Example 180, N-(3,4-dimethylisoxazol-5-yl)-1-(trans-4-hydroxycyclohexyl)-1,4-dihydro[1,8]naphthylidin-4-one-3-carboxamide] stands 5.35; under `O=C(O[C@H]1CC[C@H](n2cc(C(=O)Nc3c(Cl)cncc3Cl)c(=O)c3cccnc32)CC1)c1ccc(CN2CCOCC2)cc1` [Example 135, trans-4-[3-{[(3,5-dichloro-4-pyridinyl)amino]carbonyl}-4-oxo[1,8]naphthylidin-1(4H)-yl]cyclohexyl 4-(morpholinomethyl)benzoate hydrochloride], 8.35; under `CC(=O)O[C@H]1CC[C@@H](n2cc(C(=O)Nc3c(Cl)cncc3Cl)c(=O)c3cccnc32)CC1` [Example 118], 8.89. Still for that read-out and setting: under `Cc1cc(NC(=O)c2cn([C@H]3CC[C@H](O)CC3)c3ncccc3c2=O)sn1` [Example 176, N-(3-methylisothiazol-5-yl)-1-(trans-4-hydroxycyclohexyl)-1,4-dihydro[1,8]naphthylidin-4-one-3-carboxamide] stands 6.04; under `Cc1nn(C)c(C)c1NC(=O)c1cn([C@H]2CC[C@H](O)CC2)c2ncccc2c1=O` [Example 184, N-(1,3,5-trimethylpyrazol-4-yl)-1-(trans-4-hydroxycyclohexyl)-1,4-dihydro[1,8]naphthylidin-4-one-3-carboxamide], 5.64.

(Values after patent publication US6331548A, “1-cycloalkyl-1,8-naphthyridin-4-one derivative as type IV phosphodiesterase inhibitor” (Suntory Limited, priority 1998, dated 2001).)
